Values of other authors in patent US11612579B2, “Compositions comprising a fatty acid oil mixture and a surfactant, and methods and uses thereof” (PRONOVA BIOPHARMA NORGE AS, priority 2009, dated 2023).
Where “and” joins values, the source holds several entries; their conditions need not be identical. Equal entries are not always repeated.

Settings: commercially-available surfactants

| Molecule | HLB Value |
| --- | --- |
| sorbitan monostearate [Span ® 60] | 4.7 |
| CCCCCCCCCCCCCCCCCC(=O)OCC(O)CO (centres unmarked) [Glyceryl monostearate] | 3.3 and 3.8 |
| CCCCCCCCCCCCCCCC[N+](C)(C)C.[Br-] [Cetrimonium bromide] | 23.3 |
| CCCCCCCCCCCCCCCCCC(=O)OCCOC(=O)CCCCCCCCCCCCCCCCC [Ethylene glycol distearate] | 1.5 |
| sorbitan monooleate [Span ® 80] | 4.3 |
| CCCCCCCCCCCCOS(=O)(=O)[O-].[Na+] [Sodium lauryl sulphate] | 40 |
| sorbitan monopalmitate [Span ® 40] | 6.7 |
| CCCCCCCCCCCC(=O)OCCOCCO [Diethylene glycol monolaurate] | 6.1 |
